Results taken from ChEMBL document CHEMBL4304773, “Nitroimidazole-containing compounds and their antibacterial and antitubercular activities” (2019).
Converted amounts (≈) assume the structure as drawn.

How the values were obtained:
[1] = tested on: Helicobacter pylori; experiment: Antibacterial activity against Helicobacter pylori NCTC 11637; assay type: functional
[2] = tested on: Helicobacter pylori; experiment: Antibacterial activity against metronidazole-resistant Helicobacter pylori clinical isolates; assay type: functional
[3] = tested on: Helicobacter pylori; experiment: Antibacterial activity against Helicobacter pylori; assay type: functional
[4] = tested on: Helicobacter pylori; experiment: Antibacterial activity against metronidazole-resistant Helicobacter pylori; assay type: functional
[5] = tested on: Helicobacter pylori; experiment: Potency index, ratio of metronidazole MIC90 to test compound MIC90 for metronidazole-resistant Helicobacter pylori; assay type: functional
[6] = tested on: Staphylococcus aureus; experiment: Antibacterial activity against Staphylococcus aureus; assay type: functional
[7] = tested on: Escherichia coli; experiment: Antibacterial activity against Escherichia coli; assay type: functional
[8] = tested on: Pseudomonas aeruginosa; experiment: Antibacterial activity against Pseudomonas aeruginosa; assay type: functional
[9] = tested on: Candida albicans; experiment: Antifungal activity against Candida albicans; assay type: functional
[10] = tested on: Proteus vulgaris; experiment: Antibacterial activity against Proteus vulgaris; assay type: functional
[11] = tested on: Klebsiella aerogenes; experiment: Antibacterial activity against Klebsiella aerogenes; assay type: functional
[12] = tested on: Enterococcus faecalis; experiment: Antibacterial activity against Enterococcus faecalis; assay type: functional
[13] = tested on: Staphylococcus epidermidis; experiment: Antibacterial activity against Staphylococcus epidermidis; assay type: functional
[14] = tested on: Salmonella typhimurium; experiment: Antibacterial activity against Salmonella typhimurium; assay type: functional, Salmonella enterica subsp. enterica serovar Typhimurium; conditions: Salmonella enterica
[15] = tested on: Staphylococcus epidermidis; experiment: Antibacterial activity against methicillin-sensitive Staphylococcus epidermidis by two fold dilution method; assay type: functional
[16] = tested on: Staphylococcus aureus; experiment: Antibacterial activity against methicillin-sensitive Staphylococcus aureus by two fold dilution method; assay type: functional
[17] = tested on: Helicobacter pylori; experiment: Antibacterial activity against Helicobacter pylori clinical isolate assessed as zone of inhibition at 8 ug/disc; assay type: functional; conditions: read-out: IZ
[18] = tested on: Helicobacter pylori; experiment: Antibacterial activity against drug-resistant Helicobacter pylori assessed as zone of inhibition at 8 ug/disc; assay type: functional; conditions: read-out: IZ
[19] = tested on: Helicobacter pylori; experiment: Antibacterial activity against drug-sensitive Helicobacter pylori assessed as zone of inhibition at 8 ug/disc; assay type: functional; conditions: read-out: IZ
[20] = tested on: Clostridioides difficile; experiment: Antibacterial activity against Clostridium difficile R20291 assessed as zone of inhibition at 2.5 ug/disc after 24 hrs; assay type: functional; conditions: read-out: IZ
[21] = tested on: Clostridioides difficile; experiment: Antibacterial activity against Clostridium difficile ATCC 43603 assessed as zone of inhibition at 2.5 ug/disc after 24 hrs; assay type: functional; conditions: ATCC 43603, 24 h, read-out: IZ
[22] = tested on: Clostridioides difficile; experiment: Antibacterial activity against Clostridium difficile 630 assessed as zone of inhibition at 2.5 ug/disc after 24 hrs; assay type: functional; conditions: Clostridioides difficile, 630, 24 h; read-out: IZ
[23] = tested on: Staphylococcus aureus; experiment: Antibacterial activity against Staphylococcus aureus ATCC 6538 after 18 hrs by two fold serial dilution; assay type: functional; conditions: ATCC 6538, 18 h
[24] = tested on: Bacillus subtilis; experiment: Antibacterial activity against Bacillus subtilis PTCC 1023 after 18 hrs by two fold serial dilution; assay type: functional; conditions: PTCC 1023, 18 h
[25] = tested on: Klebsiella pneumoniae; experiment: Antibacterial activity against Klebsiella pneumoniae ATCC 10031 after 18 hrs by two fold serial dilution; assay type: functional; conditions: ATCC 10031, 18 h
[26] = tested on: Escherichia coli; experiment: Antibacterial activity against Escherichia coli ATCC 8739 after 18 hrs by two fold serial dilution; assay type: functional; conditions: ATCC 8739, 18 h
[27] = tested on: Staphylococcus epidermidis; experiment: Antibacterial activity against Staphylococcus epidermidis ATCC 12228 after 18 hrs by two fold serial dilution; assay type: functional; conditions: ATCC 12228, 18 h
[28] = tested on: Escherichia coli; experiment: Antibacterial activity against Escherichia coli infected in mouse; assay type: functional
[29] = tested on: Enterococcus faecalis; experiment: Antibacterial activity against Enterococcus faecalis after 24 hrs; assay type: functional
[30] = tested on: Staphylococcus aureus; experiment: Antibacterial activity against Staphylococcus aureus ATCC 25923 after 24 hrs; assay type: functional; conditions: ATCC 25923, 24 h
[31] = tested on: Staphylococcus aureus; experiment: Antibacterial activity against Staphylococcus aureus ATCC 29213 after 24 hrs; assay type: functional; conditions: ATCC 29213, 24 h
[32] = tested on: Staphylococcus aureus; experiment: Antibacterial activity against methicillin-resistant Staphylococcus aureus after 24 hrs; assay type: functional
[33] = tested on: Pseudomonas aeruginosa; experiment: Antibacterial activity against Pseudomonas aeruginosa after 24 hrs; assay type: functional
[34] = tested on: Pseudomonas aeruginosa; experiment: Antibacterial activity against Pseudomonas aeruginosa ATCC 27853 after 24 hrs; assay type: functional; conditions: ATCC 27853, 24 h
[35] = tested on: Escherichia coli; experiment: Antibacterial activity against Escherichia coli ATCC 25922 after 24 hrs; assay type: functional; conditions: ATCC 25922, 24 h
[36] = tested on: Klebsiella pneumoniae; experiment: Antibacterial activity against Klebsiella pneumoniae after 24 hrs; assay type: functional
[37] = tested on: Escherichia coli; experiment: Antibacterial activity against drug-resistant Escherichia coli after 24 hrs; assay type: functional

Compound: Cc1ncc([N+](=O)[O-])n1CCOc1nonc1S(=O)(=O)c1ccccc1
- MIC90 [1]: 0.5 to 32 µg/mL (≈ 1.32 to 84.4 µM)
- MIC90 [2]: 0.5 to 32 µg/mL (≈ 1.32 to 84.4 µM)
- MIC90 [3]: 1 to 4 µg/mL (≈ 2.64 to 10.5 µM)

Compound: Cc1ncc([N+](=O)[O-])n1CCOc1no[n+]([O-])c1-c1ccccc1
- MIC90 [1]: 0.5 to 32 µg/mL (≈ 1.51 to 96.6 µM)
- MIC90 [2]: 0.5 to 32 µg/mL (≈ 1.51 to 96.6 µM)
- MIC90 [3]: 1 to 4 µg/mL (≈ 3.02 to 12.1 µM)

Compound: Cc1ncc([N+](=O)[O-])n1CCNCc1no[n+]([O-])c1C#N
- MIC90 [1]: 0.5 to 32 µg/mL (≈ 1.71 to 109 µM)
- MIC90 [2]: 0.5 to 32 µg/mL (≈ 1.71 to 109 µM)
- MIC [3]: 5 µg/mL (≈ 17.1 µM)
- MIC90 [3]: 0.5 µg/mL (≈ 1.71 µM)
- MIC [4]: 0.25 to 1 µg/mL (≈ 0.853 to 3.41 µM)
- MIC90 [4]: 1 µg/mL (≈ 3.41 µM)
- Ratio [5]: >32

Compound: O=C(N[C@H](CO)[C@H](O)c1ccc([N+](=O)[O-])cc1)C(Cl)Cl [CHLORAMPHENICOL]
- MIC [6]: 7.8 to 250 µg/mL (≈ 24.1 to 774 µM)
- MIC [7]: 7.8 to 250 µg/mL (≈ 24.1 to 774 µM)
- MIC [8]: 7.8 to 250 µg/mL (≈ 24.1 to 774 µM)
- MIC [9]: 7.8 to 250 µg/mL (≈ 24.1 to 774 µM)
- MIC [10]: 7.8 to 250 µg/mL (≈ 24.1 to 774 µM)
- MIC [11]: 7.8 to 250 µg/mL (≈ 24.1 to 774 µM)
- MIC [12]: 7.8 to 250 µg/mL (≈ 24.1 to 774 µM)
- MIC [13]: 7.8 to 250 µg/mL (≈ 24.1 to 774 µM)
- MIC [14]: 7.8 to 250 µg/mL (≈ 24.1 to 774 µM)

Compound: COc1c(N2CCNC(C)C2)c(F)cc2c(=O)c(C(=O)O)cn(C3CC3)c12 (stereo unspecified) [GATIFLOXACIN]
- MIC [15]: 0.06 to 16 µg/mL (≈ 0.16 to 42.6 µM)
- MIC [16]: 0.06 to 16 µg/mL (≈ 0.16 to 42.6 µM)

Compound: Cc1ncc([N+](=O)[O-])n1CCO [METRONIDAZOLE]
- zone of inhibition at 8 µg/disc [17]: 16.3 mm
- zone of inhibition at 8 µg/disc [18]: 11 mm
- zone of inhibition at 8 µg/disc [19]: 18 mm
- zone of inhibition at 2.5 µg/disc [20]: 9 to 22 mm
- zone of inhibition at 2.5 µg/disc [21]: 9 to 22 mm
- zone of inhibition at 2.5 µg/disc [22]: 9 to 22 mm
- MIC90 [4]: > 32 µg/mL

Compound: CCn1cc(C(=O)O)c(=O)c2cc(F)c(N3CCNCC3)cc21 [NORFLOXACIN]
- MIC [23]: 0.13 to 1 µg/mL (≈ 0.407 to 3.13 µM)
- MIC [24]: 0.13 to 1 µg/mL (≈ 0.407 to 3.13 µM)
- MIC [25]: 0.13 to 1 µg/mL (≈ 0.407 to 3.13 µM)
- MIC [26]: 0.13 to 1 µg/mL (≈ 0.407 to 3.13 µM)
- MIC [27]: 0.13 to 1 µg/mL (≈ 0.407 to 3.13 µM)
- ED50 [28]: 5.6 mg/kg
- MIC [29]: 13 to 1600 µM (≈ 4.15 to 512 µg/mL)
- MIC [30]: 13 to 1600 µM (≈ 4.15 to 512 µg/mL)
- MIC [31]: 13 to 1600 µM (≈ 4.15 to 512 µg/mL)
- MIC [32]: 13 to 1600 µM (≈ 4.15 to 512 µg/mL)
- MIC [33]: 13 to 1600 µM (≈ 4.15 to 512 µg/mL)
- MIC [34]: 13 to 1600 µM (≈ 4.15 to 512 µg/mL)
- MIC [35]: 13 to 1600 µM (≈ 4.15 to 512 µg/mL)
- MIC [36]: 13 to 1600 µM (≈ 4.15 to 512 µg/mL)
- MIC [37]: 100 µM (≈ 31.9 µg/mL)
